The results in this text go back to ChEMBL document CHEMBL1138244, “Three-dimensional quantitative structure-activity relationships and activity predictions of human TRPV1 channel antagonists: comparative molecular field analysis and comparative molecular similarity index analysis of cinnamides” (J Med Chem, 2007).

SMILES strings stand for the structures.

This assay in a line: Inhibition of rat human chimera TRPV1 channel expressed in CHO cells. The format is cell-based.
`COc1ccc(NC(=O)/C=C/c2ccc(C(C)(C)C)cc2)cc1OC` showed an IC50 of 230 nM and a pIC50 of 6.64. For the molecule `COc1cc(/C=C/C(=O)Nc2ccc3c(c2)OCCO3)cc(OC)c1OC`, the IC50 is > 40000 nM and the pIC50 is reported as 4.4. In the case of `CC(C)(C)c1ccc(/C=C/CNc2ccc3c(c2)OCCO3)cc1`, the IC50 was > 40000 nM and the pIC50 is recorded as 4.4. `C/C(=C\C(=O)Nc1ccc2c(c1)OCCO2)c1ccc(C(C)(C)C)cc1` came in with an IC50 of 82 nM and a pIC50 of 7.09.

In turn, `O=C(/C=C/c1cccc2ccccc12)Nc1ccc2c(c1)OCCO2` displayed an IC50 of 643 nM and a pIC50 of 6.19.

For the molecule `CC(C)(C)c1ccc(/C=C/C(=S)Nc2ccc3c(c2)OCCO3)cc1`, the midpoint of inhibition, the IC50, lay at 392 nM and the pIC50 is 6.41. For the molecule `CC(C)(C)c1ccc(/C(=C\C(=O)Nc2ccc3c(c2)OCCO3)c2ccc(Cl)cc2)cc1`, the IC50 was 42 nM and the negative logarithm of the IC50 (pIC50) was 7.37.

`C/C(=C\c1ccc(C(C)(C)C)cc1)C(=O)Nc1ccc2c(c1)OCCO2` showed an IC50 of 164 nM and a pIC50 of 6.78. For the molecule `CC(C)(C)c1ccc(/C=C/C(=O)Nc2ccc3cccnc3c2)cc1`, the half-inhibitory concentration (IC50) came to 3 nM. `O=C(/C=C/c1ccc(Br)cc1)Nc1ccc2c(c1)OCCO2`: the IC50 amounted to 339 nM and the pIC50 turned out to be 6.47. Regarding `CCc1ccc(/C=C/C(=O)Nc2ccc3c(c2)OCCO3)cc1`, the IC50 was 247 nM and the pIC50 is 6.61. `O=C(/C=C/c1ccc2ccccc2c1)Nc1ccc2c(c1)OCCO2`: half-maximal inhibition (IC50) was put at 740 nM and the pIC50 is 6.13. The molecule `Cc1ccc(/C(=C/C(=O)Nc2ccc3c(c2)OCCO3)c2ccc(C(C)(C)C)cc2)cc1` had an IC50 of 93 nM and a pIC50 of 7.03. In turn, `CC(C)Cc1ccc(/C=C/C(=O)Nc2ccc3c(c2)OCCO3)cc1` gave an IC50 of 1010 nM and a pIC50 of 5.99. As for `COc1ccccc1NC(=O)/C=C/c1ccc(C(C)(C)C)cc1`, inhibition was half-maximal at 859 nM (IC50) and the pIC50 was 6.07. Molecule `CC(C)(C)c1ccc(CCC(=O)Nc2ccc3c(c2)OCCO3)cc1` gave an IC50 of 226 nM and a pIC50 of 6.65. On to `CC(C)(C)c1ccc(/C(=C\C(=O)Nc2ccc3c(c2)OCCO3)c2ccc(F)cc2)cc1`, for which the IC50 turned out to be 39 nM and the pIC50 came to 7.41.

In turn, `CC(C)(C)c1ccc(/C=C/C(=O)Nc2ccc3c(c2)NCCO3)cc1` displayed an IC50 of 173 nM. Molecule `O=C(/C=C/c1ccc(C(F)(F)F)nc1N1CCOCC1)Nc1ccc2cccnc2c1` had an IC50 of 2 nM and a pIC50 of 8.78.

As to `O=C(/C=C/c1ccc(F)cc1)Nc1ccc2c(c1)OCCO2`, 1470 nM corresponded to half-maximal inhibition (IC50) and the pIC50 worked out at 5.83.

With `CC(C)(C)c1cccc(/C=C/C(=O)Nc2ccc3c(c2)OCCO3)c1`, the midpoint of inhibition, the IC50, lay at 548 nM and the pIC50 was determined as 6.26.

`O=C(/C=C/c1cccc(C(F)(F)F)c1)Nc1ccc2c(c1)OCCO2`: the IC50 came out at 1210 nM and the pIC50 worked out at 5.92.

`CC(C)(C)c1ccc(/C=C/C(=O)Nc2ccc3c(c2)OC[C@H](CO)O3)cc1` yielded an IC50 of 24 nM and a pIC50 of 7.62. As for `CCOC(=O)CC/C(=C\C(=O)Nc1ccc2c(c1)OCCO2)c1ccc(C(C)(C)C)cc1`, the IC50 came out at 56 nM and the pIC50 turned out to be 7.25.

Regarding `O=C(/C=C/c1ccc(C(F)(F)F)cc1Br)Nc1ccc2c(c1)OCCO2`, inhibition was half-maximal at 453 nM (IC50) and the pIC50 came to 6.34. With `CC(C)(C)c1ccc(/C=C/C(=O)Nc2ccc3c(c2)NCCC3)cc1`, the IC50 was 55 nM. On to `CC(C)(C)c1ccc(/C=C/C(=O)Nc2ccc3c(c2)OC[C@@H](COCC2CC2)O3)cc1`, for which half-maximal inhibition (IC50) was put at 329 nM and the pIC50 is given as 6.48.

`CC(C)(C)c1ccc(/C=C/C(=O)Nc2ccc3c(c2)O[C@@H](CO)CO3)cc1` showed an IC50 of 254 nM and a pIC50 of 6.59. Turning to `CC(C)(C)c1ccc(/C(I)=C/C(=O)Nc2ccc3c(c2)OCCO3)cc1`, the IC50 worked out at 343 nM and the pIC50 came out at 6.46. `CCC/C(=C\C(=O)Nc1ccc2c(c1)OCCO2)c1ccc(C(C)(C)C)cc1`: inhibition was half-maximal at 120 nM (IC50) and the pIC50 is 6.92. Turning to `CC(C)(C)c1ccc(/C(=C/C(=O)Nc2ccc3c(c2)OCCO3)c2ccccc2)cc1`, 48 nM corresponded to half-maximal inhibition (IC50) and the pIC50 is recorded as 7.32. `O=C(/C=C/c1ccc(C(F)(F)F)nc1)Nc1ccc2c(c1)OCCO2` displayed an IC50 of 1070 nM and a pIC50 of 5.97. The like results for `CC(C)(C)c1ccc(/C(=C\C(=O)Nc2ccc3c(c2)OCCO3)c2cccc(N)c2)cc1` were, in that order, 331 nM and 6.48. `O=C(/C=C/c1ccc(C(F)(F)F)c(F)c1)Nc1ccc2c(c1)OCCO2`: it took 129 nM to reach half-maximal inhibition (IC50) and the pIC50 came to 6.89. Molecule `Cc1ccc(C(=CC(=O)Nc2ccc3c(c2)OCCO3)c2ccc(C)cc2)cc1` registered an IC50 of 247 nM and a pIC50 of 6.61.

`O=C(/C=C/c1ccc(Cl)cc1)Nc1cccc(Cl)c1` registered a 50% inhibitory concentration (IC50) of 993 nM and a pIC50 of 6. Molecule `Cc1cccc(/C(=C/C(=O)Nc2ccc3c(c2)OCCO3)c2ccc(C(C)(C)C)cc2)c1` came in with an IC50 of 59 nM and a pIC50 of 7.23. Molecule `O=C(/C=C/c1ccccc1)Nc1ccc2c(c1)OCCO2` displayed an IC50 of 5100 nM and a pIC50 of 5.29. Consider `CC(C)(C)c1ccc(/C(=C/C(=O)Nc2ccc3c(c2)OCCO3)c2cccnc2)cc1`, for which it took 144 nM to reach half-maximal inhibition (IC50) and the pIC50 was found to be 6.84.

For the molecule `CC(C)(C)c1ccc(/C=C(/C(=O)Nc2ccc3c(c2)OCCO3)c2ccccc2)cc1`, the IC50 turned out to be 10700 nM and the pIC50 is 4.97.

In turn, `CC(C)(C)c1ccc(/C=C/C(=O)Nc2ccc3cc[nH]c3c2)cc1` had an IC50 of 19 nM.

In the case of `CC(=O)Oc1ccc(/C=C/C(=O)Nc2ccc3c(c2)OCCO3)cc1`, the IC50 came out at 2330 nM and the pIC50 came to 5.63. As to `CC(C)(C)c1ccc(/C=C/C(=O)Nc2ccc3c(c2)OCCO3)cc1` (stereo in doubt; 1), half-maximal inhibition (IC50) required 23 nM and the pIC50 stood at 7.59.

As for `O=C(/C=C/c1ccc(Cl)c(Cl)c1)Nc1ccc2c(c1)OCCO2`, half-maximal inhibition (IC50) was put at 449 nM and the pIC50 is reported as 6.35. For `Cc1nc(C(F)(F)F)ccc1/C=C/C(=O)Nc1ccc2c(c1)OCCO2` the same measures were 1110 nM and 5.95.

`CC(C)(C)c1ccc(/C=C/C(=O)Nc2ccc3c(c2)OCCO3)cn1` gave an IC50 of 183 nM and a pIC50 of 6.74.

With `CC(C)(C)c1ccc(/C=C/C(=O)Nc2ccc3c(c2)OC[C@@H](CN)O3)cc1`, the IC50 was determined as 1270 nM and the pIC50 amounted to 5.9. In turn, `COc1ccc(/C=C/C(=O)Nc2ccc3c(c2)OCCO3)cc1` displayed an IC50 of 1870 nM and a pIC50 of 5.73. `CC(C)(C)c1ccc(/C=C/C(=O)Nc2ccc3oc(=O)cnc3c2)cc1` yielded an IC50 of 18 nM.

The molecule `O=C(/C=C/c1ccc([N+](=O)[O-])cc1)Nc1ccc2c(c1)OCCO2` displayed an IC50 of 583 nM and a pIC50 of 6.23.

The molecule `CC(C)C/C(=C\C(=O)Nc1ccc2c(c1)OCCO2)c1ccc(C(C)(C)C)cc1` registered an IC50 of 41 nM and a pIC50 of 7.38. `CC(C)(C)c1ccc(/C=C/C(=O)Nc2cccc(C(N)=O)c2)cc1`: half-maximal inhibition (IC50) required 33 nM and the pIC50 is reported as 7.48. `O=C(/C=C/c1ccc(I)cc1)Nc1ccc2c(c1)OCCO2` returned an IC50 of 509 nM and a pIC50 of 6.29.

On to `COc1cccc(/C(=C/C(=O)Nc2ccc3c(c2)OCCO3)c2ccc(C(C)(C)C)cc2)c1`, for which inhibition was half-maximal at 155 nM (IC50) and the pIC50 was 6.81. The like results for `O=C(/C=C/c1ccc(-c2ccccc2)cc1)Nc1ccc2c(c1)OCCO2` were, in that order, > 40000 nM and 4.4. Take `CC(=O)Nc1ccc(/C=C/C(=O)Nc2ccc3c(c2)OCCO3)cc1`: the IC50 was > 40000 nM and the pIC50 is recorded as 4.4. On to `CC(C)(C)c1ccc(/C=C/C(=O)Nc2ccc3c(c2)OCC(=O)N3)cc1`, for which the IC50 amounted to 391 nM. Turning to `O=C(C=C(c1ccc(Br)cc1)c1ccc(Br)cc1)Nc1ccc2c(c1)OCCO2`, half-maximal inhibition (IC50) was put at 61 nM and the pIC50 turned out to be 7.22. The molecule `Cc1ccc(/C=C/C(=O)Nc2ccc3c(c2)OCCO3)cc1C` displayed an IC50 of 455 nM and a pIC50 of 6.34. Take `COC[C@@H]1COc2cc(NC(=O)/C=C/c3ccc(C(C)(C)C)cc3)ccc2O1`: 1020 nM corresponded to half-maximal inhibition (IC50) and the pIC50 is on record as 5.99. Molecule `CC(C)(C)c1ccc(/C(=C/C(=O)Nc2ccc3c(c2)OCCO3)Cc2ccccc2)cc1` displayed an IC50 of 21 nM and a pIC50 of 7.69. `CC(C)(C)c1ccc(/C=C(/C(=O)Nc2ccc3c(c2)OCCO3)C2CCCC2)cc1` registered an IC50 of 15400 nM and a pIC50 of 4.81.

As for `CC(C)(C)c1ccc(/C=C/C(=O)Nc2cccc(OCCO)c2)cc1`, the IC50 was 859 nM and the pIC50 stood at 6.07.

With `CC/C(=C\c1ccc(C(C)(C)C)cc1)C(=O)Nc1ccc2c(c1)OCCO2`, the IC50 is 501 nM and the pIC50 was found to be 6.3.

`Cc1ccccc1/C(=C/C(=O)Nc1ccc2c(c1)OCCO2)c1ccc(C(C)(C)C)cc1` gave an IC50 of 279 nM and a pIC50 of 6.55. The like results for `CC(C)(C)c1ccc(/C=C/C(=O)Oc2ccc3c(c2)OCCO3)cc1` were, in that order, 868 nM and 6.06. For the molecule `COc1cccc(NC(=O)/C=C/c2ccc(C(C)(C)C)cc2)c1`, inhibition was half-maximal at 57 nM (IC50) and the pIC50 came to 7.24. `O=C(/C=C/c1cccc(OC(F)(F)F)c1)Nc1ccc2c(c1)OCCO2` registered an IC50 of 1620 nM and a pIC50 of 6.79. With `CN(C)c1ccc(/C=C/C(=O)Nc2ccc3c(c2)OCCO3)cc1`, the midpoint of inhibition, the IC50, lay at 1320 nM and the pIC50 is 5.88. `CC(C)(C)c1ccc(/C=C/C(=O)Nc2ccc3c(c2)OCCN3)cc1` returned an IC50 of 26 nM.

Broadly, the IC50 is the concentration needed to halve the response being measured. A low value points to greater potency. What is called pIC50 is the negative decadic logarithm of the IC50, by convention in mol/L. Read a low pIC50 as a large IC50.
